The test system of assay [1] is β-amyloid. The note with it: stated as known; cited from earlier work.
Assay [2] deals with Aβ40 (Homo sapiens, UniProt P05067). The assay can be described thus: Competition with fluorescent dye ThT for binding to Aβ40 (in-vitro assay). Conditions: FIG. 1. Here is the method: Competition for fluorescent binding to Aβ40: the inhibition test of competition binding to amyloid was carried out, in which 2 μM Aβ40, 1 μM amyloid fluorescent dye ThT, and 0.47 nM, 0.94 nM, 4.7 nM, 9.4 nM, 47 nM, 94 nM, 470 nM, 940 nM, 4700 nM and 9400 nM of standard compounds (PiB and BTA-1) and the compound of the present invention as the competing compounds were used. The reaction was carried out for 2 hrs at room temperature, which was excited by using Anthos Zenyth 3100 at an excitation wavelength of 485 nm, and then emitted a florescence of 535 nm. The binding rate of ThT to amyloid was set to 1 where no compound of the present invention was added to compete with ThT for binding. The PiB and BTA-1 were used as positive controls, and the binding rate of each concentration of compound was calculated according to the formula: binding rate=(fluorescence intensity with the compound of the present invention/fluorescence intensity without the compound of the present invention). The result is shown in FIG. 1, in which the horizontal axis is the concentration of the competing compound, and the longitudinal axis is the binding rate of ThT.

Here are results for 3 molecules from patent publication US9775920B2, “Use of N-(4-isopropylphenyl)-5-amino-isoindoline” (Institute of Nuclear Energy Research, Atomic Energy …, priority 2015, dated 2017).

The structures appear in SMILES notation. Entries after “also recorded” stand apart in the source; their conditions may differ.

Chain of Aβ40 (P05067 672-711 limits assumed): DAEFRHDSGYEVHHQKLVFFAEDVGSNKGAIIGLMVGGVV

With `CNc1ccc(-c2nc3ccccc3s2)cc1` [BTA-1], in assay [1], the “affinity to β-amyloid” value is on record as “high affinity”. `[11CH3]Nc1ccc(-c2nc3ccc(O)cc3s2)cc1` [PiB]: the “affinity to β-amyloid” value in assay [1] is “high affinity”. In the case of `CC(C)c1ccc(N2Cc3ccc(N)cc3C2)cc1` [the compound of the present invention, N-(4-isopropylphenyl)-5-amino-isoindoline], the “binding rate of ThT to amyloid in competition with the compound” value in assay [2] (2 μM Aβ40, 1 μM ThT, 0.47 nM to 9400 nM competing compound, 2 hrs at room temperature, excitation 485 nm, emission 535 nm) is given as “can compete with the β-amyloid dye thioflavin T (ThT) for binding to amyloid; also recorded: decrease gradually with the increasing concentration of the compound of the present invention”. The “ThT binding rate compared with PiB and BTA-1” value in assay [2] (at a low concentration of competing compound) is listed as “comparable to that of other known compounds at a low concentration”.
